Measured values as given in article PMC9490236, “Accurate de novo design of membrane-traversing macrocycles” (Cell, 2022).
Where a SMILES comes first, the peptide text is derived from it. [ ]: non-standard residue; d: D form. NMeF = CN[C@@H](Cc1ccccc1)C(=O)O; dNMeF = CN[C@H](Cc1ccccc1)C(=O)O; NMeL = CN[C@@H](CC(C)C)C(=O)O; dNMeL = CN[C@H](CC(C)C)C(=O)O; NMeA = CN[C@@H](C)C(=O)O; dNMeA = CN[C@H](C)C(=O)O; Sar = CNCC(=O)O

Experiments:
[1] = PAMPA
[2] = in vitro; conditions: PAMPA, PAMPA_Papp_Avg

Row | SMILES | PAMPA_R1 [1] | PAMPA_R3 [1] | Papp [2] [×10⁻⁶ cm/s]
1 | CC(C)C[C@@H]1NC(=O)[C@H](C(C)C)NC(=O)[C@@H](CC(C)C)N(C)C(=O)[C@H](C)NC(=O)[C@@H](CC(C)C)N(C)C(=O)[C@@H]2CCCN2C(=O)[C@H]2CCCN2C(=O)[C@H](C)N(C)C(=O)[C@H]2CCCN2C(=O)[C@@H](CC(C)C)NC1=O [Design D10.35, LEU DLEU DPRO *ALA DPRO PRO *DLEU ALA *DLEU VAL] (cyclo([dNMeL]A[dNMeL]VL[dL][dP][NMeA][dP]P)) | 5.25E-07 | 2.07E-07 | 0.279
2 | CC[C@@H](C)[C@H]1NC(=O)[C@@H](Cc2ccccc2)NC(=O)[C@H](CC(C)C)NC(=O)[C@@H](C)N(C)C(=O)[C@@H](CC(C)C)NC(=O)[C@H](CC(C)C)NC(=O)[C@H]2CCCN2C(=O)[C@@H]2CCCN2C(=O)[C@@H](C)NC(=O)[C@H]2CCCN2C1=O [Design D10.37, DLEU *DALA LEU DPHE DILE DPRO DALA PRO DPRO LEU] (cyclo(L[dF][dI][dP][dA]P[dP]L[dL][dNMeA])) | 7.62E-07 | 6.36E-07 | 0.654
3 | CC[C@@H](C)[C@H]1NC(=O)[C@H]2CCCN2C(=O)[C@@H]2CCCN2C(=O)[C@@H](CC(C)C)NC(=O)[C@H](C)NC(=O)[C@@H](CC(C)C)N(C)C(=O)[C@@H](C)N(C)C(=O)[C@@H]2CCCN2C(=O)[C@@H]([C@H](C)CC)NC(=O)[C@@H](CC(C)C)N(C)C1=O [Design D10.39, PRO *DALA *DLEU ALA DLEU PRO DPRO DILE *DLEU DILE] (cyclo(A[dL]P[dP][dI][dNMeL][dI]P[dNMeA][dNMeL])) | 1.69E-06 | 1.47E-06 | 1.48
4 | CC(C)C[C@H]1NC(=O)[C@@H](C(C)C)NC(=O)[C@H](CC(C)C)N(C)C(=O)[C@@H](Cc2ccccc2)NC(=O)[C@H](CC(C)C)N(C)C(=O)[C@H]2CCCN2C(=O)[C@@H]2CCCN2C(=O)[C@H]2CCCN2C(=O)[C@@H](C(C)C)NC(=O)[C@H]2CCCN2C1=O [Design D10.42, DVAL DLEU DPRO DVAL DPRO PRO DPRO *LEU DPHE *LEU] (cyclo([dP][NMeL][dF][NMeL][dV][dL][dP][dV][dP]P)) | 7.55E-07 | 8.78E-07 | 0.71
5 | CC(C)C[C@@H]1C(=O)N[C@@H](C)C(=O)N[C@H](CC(C)C)C(=O)N2CCC[C@H]2C(=O)N[C@H](C)C(=O)N2CCC[C@@H]2C(=O)N2CCC[C@H]2C(=O)N[C@H](C(C)C)C(=O)N[C@H](CC(C)C)C(=O)N(C)[C@H](CC(C)C)C(=O)N1C [Design D10.43, DALA DPRO PRO DVAL DLEU *DLEU *DLEU ALA DLEU PRO] (cyclo([dV][dL][dNMeL][dNMeL]A[dL]P[dA][dP]P)) | 1.81E-07 | 1.70E-07 | 0.161
6 | CC[C@H](C)[C@@H]1NC(=O)[C@@H](Cc2ccccc2)NC(=O)[C@@H](C)NC(=O)[C@@H](C(C)C)NC(=O)[C@H](CCSC)NC(=O)[C@@H]2CCCN2C(=O)[C@H]2CCCN2C(=O)[C@@H]2CCCN2C(=O)[C@@H](C)N(C)C(=O)[C@@H](CC(C)C)N(C)C1=O [Design D10.45, DVAL DALA DPHE ILE *DLEU *DALA PRO DPRO PRO MET] (cyclo(M[dV][dA][dF]I[dNMeL][dNMeA]P[dP]P)) | 5.38E-07 | 3.72E-07 | 0.487
7 | CC[C@@H](C)[C@H]1NC(=O)[C@@H](CC(C)C)NC(=O)[C@@H](CC(C)C)NC(=O)[C@H]2CCCN2C(=O)[C@H](CC(C)C)N(C)C(=O)[C@@H](C)N(C)C(=O)[C@@H]2CCCN2C(=O)[C@@H]([C@H](C)CC)NC(=O)[C@@H](C(C)C)NC(=O)[C@@H]2CCCN2C1=O [Design D10.46, PRO DVAL DILE PRO *DALA *LEU DPRO DLEU DLEU DILE] (cyclo([NMeL][dP][dL][dL][dI]P[dV][dI]P[dNMeA])) | 8.07E-07 | 6.41E-07 | 0.684
8 | CC(C)C[C@@H]1NC(=O)[C@@H](Cc2ccccc2)N(C)C(=O)[C@H](C(C)C)NC(=O)[C@H](C)NC(=O)[C@@H](C)NC(=O)[C@@H](Cc2ccccc2)N(C)C(=O)[C@@H]2CCCN2C(=O)[C@H](C(C)C)NC(=O)[C@@H]2CCCN2C(=O)[C@@H](C)NC1=O [Design D10.48, DALA PRO VAL PRO *DPHE DALA ALA VAL *DPHE LEU] (cyclo(AV[dNMeF]L[dA]PVP[dNMeF][dA])) | 3.54E-07 | 4.59E-07 | 0.405
9 | CC(C)C[C@@H]1NC(=O)[C@H](C)NC(=O)[C@@H]2CCCN2C(=O)[C@H]2CCCN2C(=O)[C@H](Cc2ccccc2)NC(=O)[C@H]2CCCN2C(=O)[C@@H](Cc2ccccc2)N(C)C(=O)[C@@H]2CCCN2C(=O)[C@@H](C)NC(=O)[C@H](CC(C)C)NC1=O [Design D10.49, DALA PRO *DPHE DPRO PHE DPRO PRO ALA LEU LEU] (cyclo(ALL[dA]P[dNMeF][dP]F[dP]P)) | 2.36E-07 | 1.35E-07 | 0.17
10 | CC[C@@H](C)[C@H]1NC(=O)[C@H](Cc2ccccc2)N(C)C(=O)[C@@H](CC(C)C)N(C)C(=O)[C@H](C(C)C)NC(=O)[C@H](C)NC(=O)[C@@H]2CCCN2C(=O)[C@H](CC(C)C)N(C)C(=O)[C@@H](Cc2ccccc2)N(C)C(=O)[C@H](C)N(C)C(=O)[C@H](C)N(C)C1=O [Design D10.56, *DPHE *LEU PRO ALA VAL *DLEU *PHE DILE *ALA *ALA] (cyclo(AV[dNMeL][NMeF][dI][NMeA][NMeA][dNMeF][NMeL]P)) | 9.15E-06 | 8.95E-06 | 9.02
11 | CC(C)C[C@@H]1NC(=O)[C@@H](CC(C)C)N(C)C(=O)[C@@H]2CCCN2C(=O)[C@H](CC(C)C)N(C)C(=O)[C@@H](C)NC(=O)[C@@H](CC(C)C)N(C)C(=O)[C@@H]2CCCN2C(=O)CN(C)C(=O)[C@H](CC(C)C)N(C)C(=O)[C@H](Cc2ccccc2)NC1=O [Design D10.57, *LEU *GLY PRO *DLEU DALA *LEU PRO *DLEU LEU PHE] (cyclo(F[NMeL][Sar]P[dNMeL][dA][NMeL]P[dNMeL]L)) | 2.94E-06 | 3.42E-06 | 3.05
12 | C[C@H]1NC(=O)[C@@H](Cc2ccccc2)NC(=O)[C@H](Cc2ccccc2)N(C)C(=O)[C@H](Cc2ccccc2)N(C)C(=O)[C@@H](Cc2ccccc2)NC(=O)[C@H]2CCCN2C(=O)CNC(=O)[C@@H](C)NC(=O)[C@@H]2CCCN2C(=O)[C@@H](Cc2ccccc2)NC1=O [Design D10.62, DALA GLY DPRO DPHE *PHE *PHE DPHE DALA DPHE PRO] (cyclo(G[dP][dF][NMeF][NMeF][dF][dA][dF]P[dA])) | 4.48E-06 | 4.48E-06 | 4.23
13 | CC[C@@H](C)[C@H]1NC(=O)[C@H](C)NC(=O)[C@@H](CC(C)C)N(C)C(=O)[C@H](CC(C)C)N(C)C(=O)[C@H](C(C)C)NC(=O)[C@@H]2CCCN2C(=O)[C@@H](CC(C)C)N(C)C(=O)[C@@H](C)N(C)C(=O)[C@@H](Cc2ccccc2)NC(=O)[C@@H]2CCCN2C(=O)[C@H]2CCCN2C1=O [Design D11.6, VAL *LEU *DLEU ALA DILE DPRO PRO DPHE *DALA *DLEU PRO] (cyclo([dF][dNMeA][dNMeL]PV[NMeL][dNMeL]A[dI][dP]P)) | 1.24E-06 | 7.58E-07 | 0.949
